This note sets out measurements from patent US11655297B2, “ILDR2 antagonists and combinations thereof” (Bayer Aktiengesellschaft, priority 2017, dated 2023).

This test relates to B16-F10 OVA tumor model. Description: B16-F10 OVA model, combination with Docetaxel. Particulars: for Mean tumor size: BAY 1905254 10 mg/kg i.p. q3d×3 starting day 8, Docetaxel once 20 mg/kg i.v. on day 8.

Method: Eight weeks old female C57B1/6N Cr1 BR mice (body weight 18-20 g) from Charles River Deutschland, Sulzfeld were used for the B16-F10 OVA tumor model. The model is a derivative of the B16F10 cell line expressing the allo-antigen ovalbumin which can be recognized by antigen-specific T cells. The experiment was initiated after an acclimatization period of 5 days. Animals were kept in a 12-hour light/dark cycle. Food and water was available ad libitum. Housing temperature was maintained at 21° C. Mice (n=12 per group) were s.c. inoculated with 1×10^4 B16F10 OVA tumor cells into the left flank and assigned to experimental groups. At treatment initiation, animals were marked and each cage was labeled with the cage number, study number and the number of animals per cage.
Agents were dosed i.p. at 10 mg/kg q3d×3, starting day 8.

With `CC(=O)O[C@@]12CO[C@@H]1C[C@H](O)[C@@]1(C)C(=O)[C@H](O)C3=C(C)[C@@H](OC(=O)[C@H](O)[C@@H](NC(=O)OC(C)(C)C)c4ccccc4)C[C@@](O)([C@@H](OC(=O)c4ccccc4)[C@H]21)C3(C)C` [Docetaxel, reference compound], where the note is “B16-F10 OVA, BAY 1905254 10 mg/kg i.p. q3d×3, Docetaxel once 20 mg/kg i.v.”, the “tumor size of the treatment group vs. Control (T/C)” value is reported as 0.74. For the same compound, the Mean tumor size runs as follows: (day 8 post inoculation) 86.56 mm3; (day 11 post inoculation) 100.78 mm3; (day 14 post inoculation) 165.78 mm3; (day 16 post inoculation) 305.33 mm3.
